Reference: US12545639B2, “3-substituted phenylamidine compounds, preparation and use thereof” (PI INDUSTRIES LTD., priority 2019, dated 2026)

What was measured:
[1] = test system: Pyricularia oryzae; assay: microbe, parasite or virus in culture; type: cell-based; details: 168 h, read-out: control compared to the untreated check (radial growth)
[2] = test system: Rhizoctonia solani; assay: Rhizoctonia solani (rice sheath blight/potato black scurf) in vitro test, radial growth on potato dextrose agar; type: cell-based; details: 168 h, 300 ppm in potato dextrose agar, 25° C., 60% relative humidity, seven days, read-out: control compared to the untreated check (radial growth)
[3] = test system: Botrytis cinerea; assay: Botrytis cinerea (gray mold) in vitro test, radial growth on potato dextrose agar; type: cell-based; details: 168 h, 300 ppm in potato dextrose agar, 22° C., 90% relative humidity, seven days, read-out: control compared to the untreated check (radial growth)
[4] = test system: Alternaria solani; assay: Alternaria solani (early blight of tomato/potato) in vitro test, radial growth on potato dextrose agar; type: cell-based; details: 168 h, 300 ppm in potato dextrose agar, 25° C., 60% relative humidity, seven days, read-out: control compared to the untreated check (radial growth)
[5] = test system: Colletotrichum capsici; assay: Colletotrichum capsici (anthracnose) in vitro test, radial growth on potato dextrose agar; type: cell-based; details: Colletotrichum truncatum, 168 h; 300 ppm in potato dextrose agar; 25° C., 60% relative humidity, seven days; read-out: control compared to the untreated check (radial growth)
[6] = test system: Septoria lycopersici/Corynespora cassicola (CORYCA); assay: Septoria lycopersici/Corynespora cassicola (CORYCA) (leaf spot of tomato) in vitro test, radial growth on potato dextrose agar; type: cell-based; details: 168 h, 300 ppm in potato dextrose agar, 25° C., 70% relative humidity, seven days, read-out: control compared to the untreated check (radial growth)
[7] = test system: Phakopsora pachyrhizi; assay: Phakopsora pachyrhizi test in soybean, preventive, in vivo on plants; details: in Glycine max, read-out: Efficacy (% control), disease severity compared to the untreated check

CCN(C)C=Nc1cc(Cl)cc(Cc2ccccc2C(F)(F)F)c1C [Compound 244, N′-(5-chloro-2-methyl-3-(2-(trifluoromethyl)benzyl)phenyl)-N-ethyl-N-methylformimidamide]
≥ 70%: inhibition of growth at 300 ppm [1] | inhibition of growth at 300 ppm [2] | inhibition of growth at 300 ppm [3] | inhibition of growth at 300 ppm [4] | inhibition of growth at 300 ppm [5]

CCN(C)C=Nc1cc(C)cc(N(C)c2cccc(C)c2F)c1Cl [Compound 139, N′-(2-chloro-3-((2-fluoro-3-methylphenyl)(methyl)amino)-5-methylphenyl)-N-ethyl-N-methylformimidamide]
≥ 70%: inhibition of growth at 300 ppm [1] | inhibition of growth at 300 ppm [5]

CCN(C)C=Nc1cc(C)cc(Cc2cccc(F)c2)c1Cl [Compound 22, N′-(2-chloro-3-(3-fluorobenzyl)-5-methylphenyl)-N-ethyl-N-methylformimidamide]
≥ 70%: inhibition of growth at 300 ppm [1] | inhibition of growth at 300 ppm [2] | inhibition of growth at 300 ppm [3] | inhibition of growth at 300 ppm [4] | inhibition of growth at 300 ppm [6] | pest or weed control at 500 ppm [7]

CCN(C)C=Nc1cc(C)cc(Cc2cccc(C#N)c2)c1Cl [Compound 48, N′-(2-chloro-3-(3-cyanobenzyl)-5-methylphenyl)-N-ethyl-N-methylformimidamide]
≥ 70%: inhibition of growth at 300 ppm [1] | inhibition of growth at 300 ppm [2] | inhibition of growth at 300 ppm [4] | inhibition of growth at 300 ppm [5]

CCN(C)C=Nc1cc(F)cc(Cc2cccc(F)c2)c1C [Compound 147, N-ethyl-N′-(5-fluoro-3-(3-fluorobenzyl)-2-methylphenyl)-N-methylformimidamide]
≥ 70%: inhibition of growth at 300 ppm [1] | inhibition of growth at 300 ppm [2] | inhibition of growth at 300 ppm [3] | inhibition of growth at 300 ppm [4] | inhibition of growth at 300 ppm [6] | pest or weed control at 500 ppm [7]

CCN(C)C=Nc1cc(F)cc(Cc2ccc(Cl)cc2)c1C [Compound 172, N′-(3-(4-chlorobenzyl)-5-fluoro-2-methylphenyl)-N-ethyl-N-methylformimidamide]
≥ 70%: inhibition of growth at 300 ppm [1] | inhibition of growth at 300 ppm [2] | inhibition of growth at 300 ppm [3] | inhibition of growth at 300 ppm [4] | inhibition of growth at 300 ppm [5]

CCN(C)C=Nc1cc(C)cc(Nc2ccc(F)cc2F)c1Cl [Compound 75, N′-(2-chloro-3-((2,4-difluorophenyl)amino)-5-methylphenyl)-N-ethyl-N-methylformimidamide]
≥ 70%: inhibition of growth at 300 ppm [1] | inhibition of growth at 300 ppm [2] | inhibition of growth at 300 ppm [4] | inhibition of growth at 300 ppm [5]

CCN(C)C=Nc1cc(Cl)cc(Nc2cccc(C(F)(F)F)n2)c1C [Compound 274, N′-(5-chloro-2-methyl-3-((6-(trifluoromethyl)pyridin-2-yl)amino)phenyl)-N-ethyl-N-methylformimidamide]
≥ 70%: inhibition of growth at 300 ppm [1] | inhibition of growth at 300 ppm [2] | inhibition of growth at 300 ppm [3] | inhibition of growth at 300 ppm [4] | inhibition of growth at 300 ppm [6] | pest or weed control at 500 ppm [7]

CCN(C)C=Nc1cc(F)cc(Cc2cccc([N+](=O)[O-])c2)c1C [Compound 259, N-ethyl-N′-(5-fluoro-2-methyl-3-(3-nitrobenzyl)phenyl)-N-methylformimidamide]
≥ 70%: inhibition of growth at 300 ppm [1] | inhibition of growth at 300 ppm [2] | inhibition of growth at 300 ppm [3] | inhibition of growth at 300 ppm [4] | inhibition of growth at 300 ppm [6] | pest or weed control at 500 ppm [7]

CCN(C)C=Nc1cc(C)cc(Cc2cccc(Cl)c2)c1Cl [Compound 27, N′-(2-chloro-3-(3-chlorobenzyl)-5-methylphenyl)-N-ethyl-N-methylformimidamide]
≥ 70%: inhibition of growth at 300 ppm [2] | inhibition of growth at 300 ppm [3] | inhibition of growth at 300 ppm [4] | inhibition of growth at 300 ppm [5]

CCN(C)C=Nc1cc(C)cc(N(C)c2ccccc2F)c1C [Compound 7, N-ethyl-N′-(3-((2-fluorophenyl)(methyl)amino)-2,5-dimethylphenyl)-N-methylformimidamide]
≥ 70%: inhibition of growth at 300 ppm [1] | inhibition of growth at 300 ppm [2] | inhibition of growth at 300 ppm [4] | inhibition of growth at 300 ppm [5]

CCN(C)C=Nc1cc(F)cc(Cc2cc(F)cc(OC)c2)c1C [Compound 237, N-ethyl-N′-(5-fluoro-3-(3-fluoro-5-methoxybenzyl)-2-methylphenyl)-N-methylformimidamide]
≥ 70%: inhibition of growth at 300 ppm [1] | inhibition of growth at 300 ppm [2] | inhibition of growth at 300 ppm [3] | inhibition of growth at 300 ppm [4] | inhibition of growth at 300 ppm [6] | pest or weed control at 500 ppm [7]

CCN(C)C=Nc1cc(F)cc(N(C)c2cccc(OC)c2)c1C [Compound 39, N-ethyl-N′-(5-fluoro-3-((3-methoxyphenyl)(methyl)amino)-2-methylphenyl)-N-methylformimidamide]
≥ 70%: inhibition of growth at 300 ppm [1] | inhibition of growth at 300 ppm [4] | inhibition of growth at 300 ppm [5] | pest or weed control at 500 ppm [7]

CCN(C)C=Nc1cc(C)cc(N(C)c2ccc(Cl)cc2)c1Cl [Compound 62, N′-(2-chloro-3-((4-chlorophenyl)(methyl)amino)-5-methylphenyl)-N-ethyl-N-methylformimidamide]
≥ 70%: inhibition of growth at 300 ppm [3] | inhibition of growth at 300 ppm [4] | inhibition of growth at 300 ppm [5]

CCN(C)C=Nc1cc(C)cc(Nc2ccc(OC)cc2)c1Cl [Compound 61, N′-(2-chloro-3-((4-methoxyphenyl)amino)-5-methylphenyl)-N-ethyl-N-methylformimidamide]
≥ 70%: inhibition of growth at 300 ppm [1] | inhibition of growth at 300 ppm [2] | inhibition of growth at 300 ppm [4] | inhibition of growth at 300 ppm [5]

CCN(C)C=Nc1cc(F)cc(N(C)c2c(C)cccc2F)c1C [Compound 145, N-ethyl-N′-(5-fluoro-3-((2-fluoro-6-methylphenyl)(methyl)amino)-2-methylphenyl)-N-methylformimidamide]
≥ 70%: inhibition of growth at 300 ppm [1] | inhibition of growth at 300 ppm [2] | inhibition of growth at 300 ppm [3] | inhibition of growth at 300 ppm [4] | inhibition of growth at 300 ppm [6] | pest or weed control at 500 ppm [7]

CCN(C)C=Nc1cc(C)cc(Nc2ccc(OC)c(F)c2)c1Cl [Compound 255, N′-(2-chloro-3-((3-fluoro-4-methoxyphenyl)amino)-5-methylphenyl)-N-ethyl-N-methylformimidamide]
≥ 70%: inhibition of growth at 300 ppm [1] | inhibition of growth at 300 ppm [2] | inhibition of growth at 300 ppm [4] | inhibition of growth at 300 ppm [5] | pest or weed control at 500 ppm [7]

CCN(C)C=Nc1cc(F)cc(Nc2ccc3ncsc3c2)c1C [Compound 225, N′-(3-(benzo[d]thiazol-6-ylamino)-5-fluoro-2-methylphenyl)-N-ethyl-N-methylformimidamide]
≥ 70%: inhibition of growth at 300 ppm [1] | inhibition of growth at 300 ppm [4] | inhibition of growth at 300 ppm [5]

CCN(C)C=Nc1cc(F)cc(Cc2ccccc2)c1C [Compound 149, N′-(3-benzyl-5-fluoro-2-methylphenyl)-N-ethyl-N-methylformimidamide]
≥ 70%: inhibition of growth at 300 ppm [1] | inhibition of growth at 300 ppm [2] | inhibition of growth at 300 ppm [3] | inhibition of growth at 300 ppm [4] | inhibition of growth at 300 ppm [6] | pest or weed control at 500 ppm [7]

CCN(C)C=Nc1cc(F)cc(Nc2ccc(OC)c(F)c2)c1C [Compound 254, N-ethyl-N′-(5-fluoro-3-((3-fluoro-4-methoxyphenyl)amino)-2-methylphenyl)-N-methylformimidamide]
≥ 70%: inhibition of growth at 300 ppm [1] | inhibition of growth at 300 ppm [2] | inhibition of growth at 300 ppm [4] | inhibition of growth at 300 ppm [5]

CCN(C)C=Nc1cc(F)cc(Cc2ccccc2C)c1C [Compound 148, N-ethyl-N′-(5-fluoro-2-methyl-3-(2-methylbenzyl)phenyl)-N-methylformimidamide]
≥ 70%: inhibition of growth at 300 ppm [1] | inhibition of growth at 300 ppm [2] | inhibition of growth at 300 ppm [3] | inhibition of growth at 300 ppm [4] | inhibition of growth at 300 ppm [6] | pest or weed control at 500 ppm [7]

CCN(C)C=Nc1cc(F)cc(Cc2cccc(Br)c2)c1C [Compound 205, N′-(3-(3-bromobenzyl)-5-fluoro-2-methylphenyl)-N-ethyl-N-methylformimidamide]
≥ 70%: inhibition of growth at 300 ppm [1] | inhibition of growth at 300 ppm [2] | inhibition of growth at 300 ppm [3] | inhibition of growth at 300 ppm [4] | inhibition of growth at 300 ppm [6] | pest or weed control at 500 ppm [7]

CCN(C)C=Nc1cc(C)cc(N(C)c2ccc(Cl)cc2F)c1Cl [Compound 156, N′-(2-chloro-3-((4-chloro-2-fluorophenyl)(methyl)amino)-5-methylphenyl)-N-ethyl-N-methylformimidamide]
≥ 70%: inhibition of growth at 300 ppm [4] | inhibition of growth at 300 ppm [5] | pest or weed control at 500 ppm [7]

CCN(C)C=Nc1cc(F)cc(Nc2cccc(F)c2)c1C [Compound 29, N-ethyl-N′-(5-fluoro-3-((3-fluorophenyl)amino)-2-methylphenyl)-N-methylformimidamide]
≥ 70%: inhibition of growth at 300 ppm [1] | inhibition of growth at 300 ppm [2] | inhibition of growth at 300 ppm [3] | inhibition of growth at 300 ppm [4] | inhibition of growth at 300 ppm [6] | pest or weed control at 500 ppm [7]
